Results from PubChem BioAssay AID2060895 (Molecular Pharmacology Branch, DTP, NCI, 2025).

Test system: PDC 899932-113-R3-J6 complex spheroid viability
Assay: Anticancer human tumor 899932-113-R3-J6-PDC patient-derived melanoma cell line growth inhibition [RAS]
Conditions: for viability, T/C: stronger effect = lower value
How it was run: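 Multi-cell-type spheroids: tumor cells plus HUVEC endothelial cells and mesenchymal stem cells. RAS-pathway inhibitors were combined with targeted agents, each dosed in half-log steps down from clinical Cmax, or from 10 microM when Cmax was unknown.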
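Throughout, for viability, T/C: spheroids exposed to agents for seven days before readout; 100% = DMSO vehicle control wells.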

For C=CC(=O)Nc1cc(Nc2nccc(-c3cn(C)c4ccccc34)n2)c(OC)cc1N(C)CCN(C)C + C=CC(=O)N1CCN(c2nc(OCC3CCCN3C)nc3c(F)c(-c4nc(N)cc(C)c4C(F)(F)F)c(Cl)cc23)C(C)C1, which IC50 (curve of first compound, second compound 0.00316 µM) is on record?
The IC50 was greater than 1 µM.

What about the IC50 (curve of first compound, second compound 0.01 µM) of the same molecule?
The IC50 was greater than 1 µM.

What about the IC50 (curve of first compound, second compound 0.0316 µM) of the same molecule?
The IC50 was greater than 1 µM.

And the IC50 (curve of first compound, second compound 0.1 µM)?
The IC50 was greater than 1 µM.

And the IC50 (curve of first compound, second compound 0.316 µM)?
Its IC50 is greater than 1 µM.

What about the IC50 (curve of first compound, second compound 1 µM) of the same molecule?
The IC50 was greater than 1 µM.

And the viability, T/C (second compound 0.00316 µM, first compound 0.00316 µM)?
The viability, T/C was 103%.

What about the viability, T/C (second compound 0.00316 µM, first compound 0.01 µM) of the same molecule?
The viability, T/C was 93.5%.

What about the viability, T/C (second compound 0.00316 µM, first compound 0.0316 µM) of the same molecule?
Its viability, T/C is 101%.

What about the viability, T/C (second compound 0.00316 µM, first compound 0.1 µM) of the same molecule?
Its viability, T/C is 99.1%.

And the viability, T/C (second compound 0.00316 µM, first compound 0.316 µM)?
Its viability, T/C is 101%.

And the viability, T/C (second compound 0.00316 µM, first compound 1 µM)?
Its viability, T/C is 82.8%.

What about the viability, T/C (second compound 0.01 µM, first compound 0.00316 µM) of the same molecule?
Its viability, T/C is 98.9%.

What about the viability, T/C (second compound 0.01 µM, first compound 0.01 µM) of the same molecule?
The viability, T/C was 99.4%.

What about the viability, T/C (second compound 0.01 µM, first compound 0.0316 µM) of the same molecule?
The viability, T/C was 98.7%.

What about the viability, T/C (second compound 0.01 µM, first compound 0.1 µM) of the same molecule?
The viability, T/C was 101%.

What about the viability, T/C (second compound 0.01 µM, first compound 0.316 µM) of the same molecule?
Its viability, T/C is 101%.

And the viability, T/C (second compound 0.01 µM, first compound 1 µM)?
Its viability, T/C is 92.2%.

And the viability, T/C (second compound 0.0316 µM, first compound 0.00316 µM)?
Its viability, T/C is 106%.

And the viability, T/C (second compound 0.0316 µM, first compound 0.01 µM)?
Its viability, T/C is 101%.

What about the viability, T/C (second compound 0.0316 µM, first compound 0.0316 µM) of the same molecule?
The viability, T/C was 92.9%.

And the viability, T/C (second compound 0.0316 µM, first compound 0.1 µM)?
Its viability, T/C is 107%.

What about the viability, T/C (second compound 0.0316 µM, first compound 0.316 µM) of the same molecule?
Its viability, T/C is 107%.

What about the viability, T/C (second compound 0.0316 µM, first compound 1 µM) of the same molecule?
The viability, T/C was 82%.

What about the viability, T/C (second compound 0.1 µM, first compound 0.00316 µM) of the same molecule?
Its viability, T/C is 110%.

And the viability, T/C (second compound 0.1 µM, first compound 0.01 µM)?
The viability, T/C was 95%.

What about the viability, T/C (second compound 0.1 µM, first compound 0.0316 µM) of the same molecule?
The viability, T/C was 112%.

And the viability, T/C (second compound 0.1 µM, first compound 0.1 µM)?
Its viability, T/C is 97.7%.

And the viability, T/C (second compound 0.1 µM, first compound 0.316 µM)?
Its viability, T/C is 96.4%.

And the viability, T/C (second compound 0.1 µM, first compound 1 µM)?
The viability, T/C was 99.6%.

What about the viability, T/C (second compound 0.316 µM, first compound 0.00316 µM) of the same molecule?
Its viability, T/C is 112%.

What about the viability, T/C (second compound 0.316 µM, first compound 0.01 µM) of the same molecule?
The viability, T/C was 103%.

What about the viability, T/C (second compound 0.316 µM, first compound 0.0316 µM) of the same molecule?
The viability, T/C was 101%.

And the viability, T/C (second compound 0.316 µM, first compound 0.1 µM)?
Its viability, T/C is 107%.

What about the viability, T/C (second compound 0.316 µM, first compound 0.316 µM) of the same molecule?
The viability, T/C was 102%.

What about the viability, T/C (second compound 0.316 µM, first compound 1 µM) of the same molecule?
Its viability, T/C is 89.1%.

And the viability, T/C (second compound 1 µM, first compound 0.00316 µM)?
Its viability, T/C is 98.4%.

And the viability, T/C (second compound 1 µM, first compound 0.01 µM)?
The viability, T/C was 97.2%.

And the viability, T/C (second compound 1 µM, first compound 0.0316 µM)?
The viability, T/C was 91.8%.

And the viability, T/C (second compound 1 µM, first compound 0.1 µM)?
Its viability, T/C is 94.5%.

And the viability, T/C (second compound 1 µM, first compound 0.316 µM)?
Its viability, T/C is 105%.

And the viability, T/C (second compound 1 µM, first compound 1 µM)?
The viability, T/C was 78.8%.

How did the viability, T/C (compound 0.0316 µM) turn out when Cc1nc(N2CCC3(CC2)COC(C)C3N)c(CO)nc1Sc1ccnc(N)c1Cl (centres undefined) was run?
The viability, T/C was 104% [middle of 4 runs].

What about the viability, T/C (compound 0.1 µM) of the same molecule?
Its viability, T/C is 103% [middle of 4 runs].

And the viability, T/C (compound 0.316 µM)?
Its viability, T/C is 111% [middle of 4 runs].

What about the viability, T/C (compound 1 µM) of the same molecule?
The viability, T/C was 112% [middle of 4 runs].

And the viability, T/C (compound 3.16 µM)?
Its viability, T/C is 112% [middle of 4 runs].

What about the viability, T/C (compound 10 µM) of the same molecule?
The viability, T/C was 108% [middle of 4 runs].

And the IC50 (curve of compound)?
The IC50 was greater than 10 µM.
